Measurements as given in ChEMBL document CHEMBL1143807, “Design and synthesis of oxime ethers of alpha-acyl-beta-phenylpropanoic acids as PPAR dual agonists” (Bioorg Med Chem Lett, 2007).

Assays:
[1] = molecular target: T1, Peroxisome proliferator-activated receptor alpha (Homo sapiens, UniProt Q07869); experiment: Agonist activity at human PPARalpha in HepG2 cells by PPAR-GAL4 transactivation assay; assay type: functional, cell-based
T1 sequence (Q07869 whole entry): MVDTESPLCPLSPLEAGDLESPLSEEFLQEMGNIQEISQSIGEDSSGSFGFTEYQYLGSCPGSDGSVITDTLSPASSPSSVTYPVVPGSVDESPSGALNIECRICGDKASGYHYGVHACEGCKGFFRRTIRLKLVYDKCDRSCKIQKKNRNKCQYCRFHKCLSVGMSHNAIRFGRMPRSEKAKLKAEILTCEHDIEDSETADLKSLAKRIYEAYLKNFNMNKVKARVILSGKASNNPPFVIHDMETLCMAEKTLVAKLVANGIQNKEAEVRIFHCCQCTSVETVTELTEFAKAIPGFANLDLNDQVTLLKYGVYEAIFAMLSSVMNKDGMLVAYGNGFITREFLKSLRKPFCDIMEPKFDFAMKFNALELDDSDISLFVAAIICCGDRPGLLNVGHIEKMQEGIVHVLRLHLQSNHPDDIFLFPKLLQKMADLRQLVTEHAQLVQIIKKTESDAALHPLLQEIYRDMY

[2] = molecular target: T2, Peroxisome proliferator-activated receptor gamma (Homo sapiens, UniProt P37231)
T2 sequence (P37231 whole entry): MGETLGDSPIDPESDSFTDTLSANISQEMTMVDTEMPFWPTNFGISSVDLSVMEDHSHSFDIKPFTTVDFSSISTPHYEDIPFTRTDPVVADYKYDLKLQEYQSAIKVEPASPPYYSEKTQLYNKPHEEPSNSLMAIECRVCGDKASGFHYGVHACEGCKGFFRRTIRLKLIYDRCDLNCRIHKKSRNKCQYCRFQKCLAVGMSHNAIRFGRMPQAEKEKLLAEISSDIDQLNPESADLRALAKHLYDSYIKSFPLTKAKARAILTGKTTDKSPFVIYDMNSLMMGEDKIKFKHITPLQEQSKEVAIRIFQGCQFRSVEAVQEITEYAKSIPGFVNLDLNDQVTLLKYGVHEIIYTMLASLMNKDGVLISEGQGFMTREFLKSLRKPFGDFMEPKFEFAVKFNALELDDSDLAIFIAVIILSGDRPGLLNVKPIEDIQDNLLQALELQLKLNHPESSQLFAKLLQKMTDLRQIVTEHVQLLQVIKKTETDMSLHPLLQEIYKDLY
Description: Agonist activity at human PPARgamma in HepG2 cells by PPAR-GAL4 transactivation assay

Mus musculus [3] = experiment: Decrease in plasma triglyceride level in db/db mouse at 1 mg/kg, po; assay type: functional; set-up: scale not given: the % may be the effect or the level left
Mus musculus [4] = experiment: Decrease in plasma glucose level in db/db mouse at 1 mg/kg, po; assay type: functional; set-up: scale not given: the % may be the effect or the level left
Mus musculus [5] = experiment: Decrease in plasma triglyceride level in db/db mouse at 0.1 mg/kg, po; assay type: functional; set-up: scale not given: the % may be the effect or the level left
Mus musculus [6] = experiment: Decrease in plasma glucose level in db/db mouse at 10 mg/kg, po; assay type: functional; set-up: scale not given: the % may be the effect or the level left
[7] = Tmax in Sprague-Dawley rat at 10 mg/kg, po; assay type: ADME, organism-based; set-up: dose 10 mg/kg, route oral; details: in vivo
[8] = Cmax in Sprague-Dawley rat at 10 mg/kg, po; assay type: ADME, organism-based; set-up: dose 10 mg/kg, route oral; details: in vivo
[9] = Half life in Sprague-Dawley rat at 10 mg/kg, po; assay type: ADME, organism-based; set-up: dose 10 mg/kg, route oral; details: in vivo
[10] = AUC (0-24 hrs) in Sprague-Dawley rat at 5 mg/kg, iv; assay type: ADME, organism-based; set-up: time < 24 hr, dose 5 mg/kg, route intravenous; details: plasma
Mus musculus [11] = experiment: Decrease in plasma triglyceride level in db/db mouse at 10 mg/kg, po; assay type: functional; set-up: scale not given: the % may be the effect or the level left
[12] = Half life in Sprague-Dawley rat at 5 mg/kg, iv; assay type: ADME, organism-based; set-up: dose 5 mg/kg, route intravenous; details: in vivo
[13] = Bioavailability in Sprague-Dawley rat at 10 mg/kg, po; assay type: ADME, organism-based; details: in vivo
[14] = Clearance in Sprague-Dawley rat at 5 mg/kg, iv; assay type: ADME, organism-based; set-up: dose 5 mg/kg, route intravenous; details: in vivo
[15] = Volume of distribution in Sprague-Dawley rat at 5 mg/kg, iv; assay type: ADME, organism-based; set-up: dose 5 mg/kg, route intravenous; details: in vivo, read-out: Vdss
[16] = AUC (0-24 hrs) in Sprague-Dawley rat at 10mg/kg, po; assay type: ADME, organism-based; set-up: dose 10 mg/kg, time < 24 hr, route oral; details: plasma
Mus musculus [17] = experiment: Decrease in plasma glucose level in db/db mouse at 0.1 mg/kg, po; assay type: functional; set-up: scale not given: the % may be the effect or the level left

| Compound | EC50 [1] [nM] | EC50 [2] [nM] | also measured |
| --- | --- | --- | --- |
| CCO[C@@H](Cc1ccc(OCCc2ccc(OS(C)(=O)=O)cc2)cc1)C(=O)O [TESAGLITAZAR] | 9800 | 3530 | Activity (Mus musculus [3]): 38%; Activity (Mus musculus [4]): 68% |
| C/C(=N\OCc1ccc(F)cc1)C(Cc1ccc(OCCc2nc(-c3ccccc3)oc2C)cc1)C(=O)O (stereo not given) | 10.6 | 0.54 |  |
| CCCO/N=C(\C)C(Cc1ccc(OCc2nc(C(C)C)oc2C)cc1)C(=O)O (stereo not given) | 105 | 5 |  |
| CCCO/N=C(\C)C(Cc1ccc(OCCc2nc(C(C)C)oc2C)cc1)C(=O)O (stereo not given) | 10 | 5.2 |  |
| C/C(=N\OCC(C)C)C(Cc1ccc(OCCc2nc(-c3ccccc3)oc2C)cc1)C(=O)O (stereo not given) | 2.2 | 0.3 |  |
| CCCO/N=C(\C)C(Cc1ccc(OCc2nc(-c3ccccc3)oc2C)cc1)C(=O)O (stereo not given) | 19 | 13 | Activity (Mus musculus [5]): 43%; Activity (Mus musculus [6]): 73%; Tmax [7]: 0.5 h; Cmax [8]: 22600 ng/mL; Activity (Mus musculus [3]): 41%; half-life [9]: 8.05 h; AUC(0-t) at 24 h [10]: 113 µg·h/mL; Activity (Mus musculus [11]): 58%; half-life [12]: 5.93 h; Activity (Mus musculus [4]): 56%; bioavailability [13]: 75.5%; clearance [14]: 0.8 mL/min/kg; Vd [15]: 0.329 L/kg; AUC(0-t) at 24 h [16]: 162 µg·h/mL; Activity (Mus musculus [17]): 8% |
| CN(CCOc1ccc(CC2SC(=O)NC2=O)cc1)c1ccccn1 (stereo not given) [ROSIGLITAZONE] |  |  | Activity (Mus musculus [6]): 65%; Activity (Mus musculus [11]): 65% |
| C/C(=N/OCc1ccc(F)cc1)C(Cc1ccc(OCCc2nc(-c3ccccc3)oc2C)cc1)C(=O)O (stereo not given) | 596 | 5 |  |
| CCO/N=C(\C)C(Cc1ccc(OCc2nc(-c3ccccc3)oc2C)cc1)C(=O)O (stereo not given) | 91 | 4 |  |
| C/C(=N\OCC1CC1)C(Cc1ccc(OCCc2nc(-c3ccccc3)oc2C)cc1)C(=O)O (stereo not given) | 3.1 | 0.36 |  |
| CCO/N=C(\CC)C(Cc1ccc(OCCc2nc(-c3ccccc3)oc2C)cc1)C(=O)O (stereo not given) | 26 | 0.1 |  |

Further lines, with some results ahead:

| EC50 [1] [nM] | EC50 [2] [nM] | Compound | also measured |
| --- | --- | --- | --- |
| 19 | 2.1 | CO/N=C(\C)C(Cc1ccc(OCCc2nc(-c3ccccc3)oc2C)cc1)C(=O)O (stereo not given) |  |
| 11.7 | 28 | CCCO/N=C(\C)C(Cc1ccc(OCc2nc(-c3ccc(F)cc3)oc2C)cc1)C(=O)O (stereo not given) |  |
| 23 | 7.7 | C/C(=N\OCCF)C(Cc1ccc(OCc2nc(-c3ccc(F)cc3)oc2C)cc1)C(=O)O (stereo not given) |  |
| 4 | 2.1 | CCCO/N=C(\C)C(Cc1ccc(OCCc2nc(-c3ccc(F)cc3)oc2C)cc1)C(=O)O (stereo not given) |  |
| 1240 | 48 | CCO/N=C(\C)C(Cc1ccc(OCc2nc(C(C)C)oc2C)cc1)C(=O)O (stereo not given) |  |
| 32 | 0.31 | CC/C(=N\OC)C(Cc1ccc(OCCc2nc(-c3ccccc3)oc2C)cc1)C(=O)O (stereo not given) |  |
| 11.5 | 3 | CCO/N=C(\C)C(Cc1ccc(OCCc2nc(-c3ccc(F)cc3)oc2C)cc1)C(=O)O (stereo not given) |  |
| 4.9 | 0.55 | CCCO/N=C(\C)C(Cc1ccc(OCCc2nc(-c3ccccc3)oc2C)cc1)C(=O)O (stereo not given) |  |
| 139 | 20 | CCO/N=C(\C)C(Cc1ccc(OCCc2nc(C(C)C)oc2C)cc1)C(=O)O (stereo not given) |  |
| 1.3 | 0.19 | CCCCO/N=C(\C)C(Cc1ccc(OCCc2nc(-c3ccccc3)oc2C)cc1)C(=O)O (stereo not given) |  |
| 3.5 | 2.9 | C/C(=N\OCCF)C(Cc1ccc(OCCc2nc(-c3ccc(F)cc3)oc2C)cc1)C(=O)O (stereo not given) |  |
| 12 | 6.8 | CCO/N=C(\C)C(Cc1ccc(OCc2nc(-c3ccc(F)cc3)oc2C)cc1)C(=O)O (stereo not given) |  |
| 12 | 1 | CCO/N=C(\C)C(Cc1ccc(OCCc2nc(-c3ccccc3)oc2C)cc1)C(=O)O (stereo not given) |  |
